Results from patent US10201546B2, “Quinolinyl modulators of RORγt” (Janssen Pharmaceutica NV, priority 2013, dated 2019).

Target: human RORγt LBD fused to the DNA binding domain of the GAL4 protein (Homo sapiens (Human), UniProt P51449)
Assay: RORγt (LBD) reporter assay in HEK293T cells
Type: cell-based
Set-up: RORγt (LBD) Reporter Assay, % inhibition: dose or concentration left out as unconfirmed
Details: for inhibition at 6 µM: HEK-293T, read-out: RORγt (LBD) Reporter Assay, % inhibition @ 6 μM, @ 6 μM

Chain of human RORγt LBD fused to the DNA binding domain of the GAL4 protein (P51449 258-518): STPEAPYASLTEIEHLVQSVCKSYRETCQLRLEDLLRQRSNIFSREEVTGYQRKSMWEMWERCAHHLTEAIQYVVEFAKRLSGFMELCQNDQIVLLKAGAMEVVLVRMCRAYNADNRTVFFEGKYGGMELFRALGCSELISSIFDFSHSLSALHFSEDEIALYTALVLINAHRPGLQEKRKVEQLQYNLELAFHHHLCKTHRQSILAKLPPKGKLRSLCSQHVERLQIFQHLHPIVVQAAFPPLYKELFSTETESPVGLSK

Row | Compound | RORγt (LBD) Reporter Assay, % inhibition @ 6 μM | inhibition at 6 µM | also measured
1 | COc1nc2ccc(C(O)(c3ccc(C)nc3C)c3cnnn3C)cc2c(Cl)c1C1CCCC1 (single isomer, unassigned) [Example 136c, (4-Chloro-3-cyclopentyl-2-methoxyquinolin-6-yl)(2,6-dimethylpyridin-3-yl)(1-methyl-1H-1,2,3-triazol-5-yl)methanol] |  |  | RORγt (LBD) Reporter Assay, % inhibition: 98%
2 | COc1nc2ccc(C(O)(c3ccc(C)nc3C)c3cnnn3C)cc2c(Cl)c1OC1CCOCC1 (single isomer, unassigned) [Example 69c, [4-Chloro-2-methoxy-3-(tetrahydro-2H-pyran-4-yloxy)quinolin-6-yl](2,6-dimethylpyridin-3-yl)(1-methyl-1H-1,2,3-triazol-5-yl)methanol] | 61% |  | 
3 | COc1nc2ccc(C(O)(c3ccc(C)nc3C)c3cnnn3C)cc2c(Cl)c1CC1CCC(F)(F)CC1 (single isomer, unassigned) [Example 1c, (4-Chloro-3-((4,4-difluorocyclohexyl)methyl)-2-methoxyquinolin-6-yl)(2,6-dimethylpyridin-3-yl)(1-methyl-1H-1,2,3-triazol-5-yl)methanol] | 66% |  | 
4 | COc1nc2ccc(C(O)(c3ccc(C(F)(F)F)nc3)c3cncn3C)cc2c(Cl)c1CN1CCC(C(F)(F)F)CC1 (single isomer, unassigned) [Example 112c, (4-Chloro-2-methoxy-3-((4-(trifluoromethyl)piperidin-1-yl)methyl)quinolin-6-yl)(1-methyl-1H-imidazol-5-yl)(6-(trifluoromethyl)pyridin-3-yl)methanol] | 96% |  | 
5 | COc1nc2ccc(C(O)(c3ccc(C)nc3C)c3cnnn3C)cc2c(Cl)c1CN1CCC(F)(F)CC1 (single isomer, unassigned) [Example 107b, (4-Chloro-3-((4,4-difluoropiperidin-1-yl)methyl)-2-methoxyquinolin-6-yl)(2,6-dimethylpyridin-3-yl)(1-methyl-1H-1,2,3-triazol-5-yl)methanol] |  | 38% | 
6 | COc1nc2ccc(C(O)(c3ccc(C)nc3C)c3cnnn3C)cc2c(Cl)c1OCc1nccs1 (single isomer, unassigned) [Example 73c, [4-Chloro-2-methoxy-3-(1,3-thiazol-2-ylmethoxy)quinolin-6-yl](2,6-dimethylpyridin-3-yl)(1-methyl-1H-1,2,3-triazol-5-yl)methanol] | −80% |  | 
7 | COc1nc2ccc(C(O)(c3ccc(C)nc3C)c3cnnn3C)cc2c(Cl)c1C (centres unmarked) [Example 12a, (4-Chloro-2-methoxy-3-methylquinolin-6-yl)(2,6-dimethylpyridin-3-yl)(1-methyl-1H-1,2,3-triazol-5-yl)methanol] |  | 93% | 
8 | COc1nc2ccc(C(O)(c3ccc(C)nc3C)c3cnnn3C)cc2c(Cl)c1CN1CCC(C(F)(F)F)CC1 (single isomer, unassigned) [Example 103c, (4-Chloro-2-methoxy-3-((4-(trifluoromethyl)piperidin-1-yl)methyl)quinolin-6-yl)(2,6-dimethylpyridin-3-yl)(1-methyl-1H-1,2,3-triazol-5-yl)methanol] | 99% |  | 
9 | COc1nc2ccc(C(O)(c3ccc(C)nc3C)c3cnnn3C)cc2c(Cl)c1CN1CC(C(F)(F)F)C1 (single isomer, unassigned) [Example 114b, (4-Chloro-2-methoxy-3-((3-(trifluoromethyl)azetidin-1-yl)methyl)quinolin-6-yl)(2,6-dimethylpyridin-3-yl)(1-methyl-1H-1,2,3-triazol-5-yl)methanol] |  | 60% | 
10 | COc1nc2ccc(C(O)(c3ccc(C(F)(F)F)nc3)c3cncn3C)cc2c(Cl)c1CN1CCC(C(F)(F)F)CC1 (single isomer, unassigned) [Example 112b, (4-Chloro-2-methoxy-3-((4-(trifluoromethyl)piperidin-1-yl)methyl)quinolin-6-yl)(1-methyl-1H-imidazol-5-yl)(6-(trifluoromethyl)pyridin-3-yl)methanol] |  | 97% | 
11 | COc1nc2ccc(C(O)(c3ccc(C)nc3C)c3cnnn3C)cc2c(Cl)c1CC(C)C (centres unmarked) [Example 133a, (4-Chloro-3-isobutyl-2-methoxyquinolin-6-yl)(2,6-dimethylpyridin-3-yl)(1-methyl-1H-1,2,3-triazol-5-yl)methanol] |  |  | RORγt (LBD) Reporter Assay, % inhibition: 98%
12 | COc1nc2ccc(C(O)(c3ccc(C)nc3C)c3cnnn3C)cc2c(Cl)c1CN1CCC(F)(F)CC1 (centres unmarked) [Example 107a, (4-Chloro-3-((4,4-difluoropiperidin-1-yl)methyl)-2-methoxyquinolin-6-yl)(2,6-dimethylpyridin-3-yl)(1-methyl-1H-1,2,3-triazol-5-yl)methanol] |  | 54% | 
13 | COc1nc2ccc(C(O)(c3ccc(C)nc3C)c3cnnn3C)cc2c(Cl)c1OCC1CC1(F)F (centres unmarked) [Example 72a, {4-Chloro-3-[(2,2-difluorocyclopropyl)methoxy]-2-methoxyquinolin-6-yl}(2,6-dimethylpyridin-3-yl)(1-methyl-1H-1,2,3-triazol-5-yl)methanol] |  | 85% | 
14 | COc1nc2ccc(C(O)(c3ccc(C)nc3C)c3cnnn3C)cc2c(Cl)c1OC1CCOCC1 (single isomer, unassigned) [Example 69b, [4-Chloro-2-methoxy-3-(tetrahydro-2H-pyran-4-yloxy)quinolin-6-yl](2,6-dimethylpyridin-3-yl)(1-methyl-1H-1,2,3-triazol-5-yl)methanol] | 37% |  | 
15 | COc1nc2ccc(C(O)(c3ccc(C)nc3C)c3cnnn3C)cc2c(Cl)c1OCC1CC1 (single isomer, unassigned) [Example 68c, [4-Chloro-3-(cyclopropylmethoxy)-2-methoxyquinolin-6-yl](2,6-dimethylpyridin-3-yl)(1-methyl-1H-1,2,3-triazol-5-yl)methanol] | 87% |  | 
16 | COc1nc2ccc(C(O)(c3ccc(C)nc3C)c3cnnn3C)cc2c(Cl)c1C (single isomer, unassigned) [Example 12c, (4-Chloro-2-methoxy-3-methylquinolin-6-yl)(2,6-dimethylpyridin-3-yl)(1-methyl-1H-1,2,3-triazol-5-yl)methanol] | 93% |  | 
17 | COc1nc2ccc(C(O)(c3ccc(C)nc3C)c3cnnn3C)cc2c(Cl)c1CC1CCC(F)(F)CC1 (single isomer, unassigned) [Example 1b, (4-Chloro-3-((4,4-difluorocyclohexyl)methyl)-2-methoxyquinolin-6-yl)(2,6-dimethylpyridin-3-yl)(1-methyl-1H-1,2,3-triazol-5-yl)methanol] |  | 78% | 
18 | COc1nc2ccc(C(O)(c3ccc(C)nc3C)c3cnnn3C)cc2c(Cl)c1CN1CCC(F)CC1 (single isomer, unassigned) [Example 108b, (4-Chloro-3-((4-fluoropiperidin-1-yl)methyl)-2-methoxyquinolin-6-yl)(2,6-dimethylpyridin-3-yl)(1-methyl-1H-1,2,3-triazol-5-yl)methanol] | 6% |  | 
19 | COc1nc2ccc(C(O)(c3ccc(C)nc3C)c3cnnn3C)cc2c(Cl)c1CC(F)(F)F (single isomer, unassigned) [Example 143b, [4-Chloro-2-methoxy-3-(2,2,2-trifluoroethyl)quinolin-6-yl](2,6-dimethylpyridin-3-yl)(1-methyl-1H-1,2,3-triazol-5-yl)methanol] |  |  | RORγt (LBD) Reporter Assay, % inhibition: 77%
20 | COc1nc2ccc(C(O)(c3ccc(C)nc3C)c3cnnn3C)cc2c(Cl)c1OCC1CC1(F)F (single isomer, unassigned) [Example 72c, {4-Chloro-3-[(2,2-difluorocyclopropyl)methoxy]-2-methoxyquinolin-6-yl}(2,6-dimethylpyridin-3-yl)(1-methyl-1H-1,2,3-triazol-5-yl)methanol] | 86% |  | 
21 | COc1nc2ccc(C(O)(c3ccc(C)nc3C)c3cnnn3C)cc2c(Cl)c1CN1CC(C(F)(F)F)C1 (single isomer, unassigned) [Example 114c, (4-Chloro-2-methoxy-3-((3-(trifluoromethyl)azetidin-1-yl)methyl)quinolin-6-yl)(2,6-dimethylpyridin-3-yl)(1-methyl-1H-1,2,3-triazol-5-yl)methanol] | 72% |  | 
22 | COc1nc2ccc(C(O)(c3cnnn3C)c3cnc(C)n3C)cc2c(Cl)c1CN1CCC(C(F)(F)F)CC1 (single isomer, unassigned) [Example 106b, (4-Chloro-2-methoxy-3-((4-(trifluoromethyl)piperidin-1-yl)methyl)quinolin-6-yl)(1,2-dimethyl-1H-imidazol-5-yl)(1-methyl-1H-1,2,3-triazol-5-yl)methanol] |  | 103% | 
23 | COc1nc2ccc(C(O)(c3ccc(C)nc3C)c3cnnn3C)cc2c(Cl)c1CN1CCC(F)CC1 (single isomer, unassigned) [Example 108c, (4-Chloro-3-((4-fluoropiperidin-1-yl)methyl)-2-methoxyquinolin-6-yl)(2,6-dimethylpyridin-3-yl)(1-methyl-1H-1,2,3-triazol-5-yl)methanol] | 14% |  | 
24 | COCCOc1c(OC)nc2ccc(C(O)(c3ccc(C(F)(F)F)nc3)c3cncn3C)cc2c1Cl (single isomer, unassigned) [Example 79b, [4-Chloro-2-methoxy-3-(2-methoxyethoxy)quinolin-6-yl](1-methyl-1H-imidazol-5-yl)[6-(trifluoromethyl)pyridin-3-yl]methanol] | 30% |  | 
25 | COc1nc2ccc(C(O)(c3ccc(C)nc3C)c3cnnn3C)cc2c(Cl)c1OCC1CC1 (centres unmarked) [Example 68a, [4-Chloro-3-(cyclopropylmethoxy)-2-methoxyquinolin-6-yl](2,6-dimethylpyridin-3-yl)(1-methyl-1H-1,2,3-triazol-5-yl)methanol] |  | 83% | 
26 | COc1nc2ccc(C(O)(c3ccc(C)nc3C)c3cnnn3C)cc2c(Cl)c1OCC1CC1 (single isomer, unassigned) [Example 68b, [4-Chloro-3-(cyclopropylmethoxy)-2-methoxyquinolin-6-yl](2,6-dimethylpyridin-3-yl)(1-methyl-1H-1,2,3-triazol-5-yl)methanol] | 54% |  | 
